# Tested on: DMBA-induced mammary carcinoma
# Assay: Development of DMBA-induced mammary carcinoma in the rat
# Format: in vivo
# Conditions: 279 days after DMBA
# Protocol: Female Sprague-Dawley rats [Crl:CD(SD)Br] were obtained at 44-46 days of age from Charles River Canada Inc. (St. Constant, Quebec) and housed 2 per cage in a light (12 h light/day; lights on at 07:15 h)-and temperature (22±2° C.)-controlled environment. Animals received Purina rodent chow and tap water ad libitum. The animal studies were conducted in a Canadian Council on Animal Care (CCAC)-approved facility in agreement with the CCAC Guide for Care and Use of Experimental Animals.
# Mammary carcinomas were induced by a single intragastric administration of 20 mg of DMBA (Sigma Chemical Co., St. Louis, Mo.) in 1 ml of corn oil at 50-52 days of age. Two months later, tumor measurement was performed biweekly. The two largest perpendicular diameters of each tumor were recorded with calipers to estimate tumor size as described (Asselin et al., Endocrinology 101: 666-671, 1977). Tumor site, size and number were recorded.
# The animals were randomly divided into groups each containing 20 rats with the exception of 40 animals in the control group. […] Treatment was initiated 3 days before the oral administration of DMBA. EM-800 was synthesized in the Medicinal Chemistry Division of our laboratory while DHEA was purchased from Steraloids Inc., Wilton, N.H.
# Many of the control animals and some of EM-800- or DHEA-treated animals were sacrificed by cervical dislocation under isoflurane-induced anesthesia 6 months after DMBA administration because of the too large size of tumors. The values of tumor size and number of these rats at sacrifice, together with those measured at later time intervals from the surviving animals, were used for the later analysis of the incidence of tumors, average tumor number per tumor-bearing rat and average tumor size per tumor-bearing animal. […] Rats were sacrificed 279 days after DMBA administration.
# Statistical significance was measured according to the multiple range test of Duncan-Kramer (Biometrics 12: 307-310, 1956). Analysis of the incidence of development of mammary tumors was performed using the Fisher's exact test (Conover, Practical nonparametric statistics, 2nd Edition 153-170, 1980). The data are presented as means±S.E.M.
compound,measurement,setting,value
"CC1=C(c2ccc(OC(=O)C(C)(C)C)cc2)[C@H](c2ccc(OCCN3CCCCC3)cc2)Oc2cc(OC(=O)C(C)(C)C)ccc21 [EM-800, (+)-7-pivaloyloxy-3-(4′-pivaloyloxyphenyl)-4-methyl-2-(4″-(2′″-piperidinoethoxy)phenyl)-2H-benzopyran]",incidence of DMBA-induced mammary carcinoma (animals with palpable tumors),"DHEA 10 mg percutaneously, EM-800 75 μg orally, once daily, control 95%",38%
same,average tumor number per tumor-bearing animal,"end of experiment, DHEA 10 mg, EM-800 75 μg daily, control 4.7±0.5",1.4±0.3 tumors/animal
same,average tumor area per tumor-bearing animal,"end of experiment, DHEA 10 mg, EM-800 75 μg daily, control 12.8±1.3",7.7±1.8 cm^2

# Reference: patent publication US7943603B2, “Medical uses of a selective estrogen receptor modulator in combination with sex steroid precursors” (Endorecherche, Inc., priority 1998, dated 2011)
